From ChEMBL document CHEMBL1128941, “Peptidomimetic inhibitors of herpes virus ribonucleotide reductase. Correlation between herpes simplex and varicella zoster virus” (Bioorg Med Chem Lett, 1996)
Starred links: 1 amine or outer side, 2 acyl side, 3 side chain; linkers in the order of their positions; H or OH if unused. Non-standard residues stand in square brackets, D forms with d. Residues, ends and D or L forms follow the SMILES beside them. *: point of attachment. Asp(3,3-(CH2)4) = N[C@H](C(=O)O)C1(C(=O)O)CCCC1; Dibenzylacetyl = O=C(C(Cc1ccccc1)Cc1ccccc1)*; Hydrocinnamoyl = O=C(CCc1ccccc1)*; tBuAla = CC(C)(C)C[C@H](N)C(=O)O; Tle = CC(C)(C)[C@H](N)C(=O)O; NMeV = CN[C@H](C(=O)O)C(C)C; NH(3-pentyl) = CCC(CC)N*; Pyrrolidide = C1CCN(*)C1; CO = O=C([*:1])[*:2]; X1 = CCC(CC)OC(=O)*; X2 = CCC(CC)CC(=O)*

How the values were obtained:
[1] = Inhibitory potency against Herpes Simplex virus ribonucleotide reductase; design: species or system Herpes simplex virus (type 1 / strain 17)
[2] = Inhibitory potency against Varicella zoster virus ribonucleotide reductase

Compound	IC50 [1] [nM]	IC50 [2] [nM]
CC(C)C[C@H](NC(=O)[C@H](CC(=O)O)NC(=O)[C@H](CC(N)=O)NC(=O)[C@@H](NC(=O)[C@@H](NC(=O)CCc1ccccc1)C(C)C)C(C)C)C(=O)O	4000	15000
CC(C)C[C@H](NC(=O)[C@H](CC(=O)O)NC(=O)[C@H](CC(N)=O)NC(=O)[C@@H](NC(=O)[C@@H](NC(=O)[C@H](C)NC(=O)CNC(=O)[C@H](C)NC(=O)[C@@H](N)Cc1ccc(O)cc1)C(C)C)C(C)C)C(=O)O	25000	
CC(C)C[C@H](NC(=O)[C@H](CC(=O)O)NC(=O)[C@H](CC(=O)N1CCCC1)NC(=O)[C@@H](NC(=O)[C@@H](NC(=O)C(Cc1ccccc1)Cc1ccccc1)C(C)C)C(C)C)C(=O)O (Dibenzylacetyl-VVD(Pyrrolidide)DL-OH)	0.7	22
CC(C)C[C@H](NC(=O)[C@@H](NC(=O)[C@H](CC(=O)N1CCCC1)NC(=O)[C@@H](NC(=O)[C@@H](NC(=O)CCc1ccccc1)C(C)C)C(C)C)C1(C(=O)O)CCCC1)C(=O)O (Hydrocinnamoyl-VVD(Pyrrolidide)[Asp(3,3-(CH2)4)]L-OH)	1	37
CC(C)C[C@H](NC(=O)[C@H](CC(=O)O)NC(=O)[C@H](CC(=O)N1CCCC1)NC(=O)[C@@H](NC(=O)[C@@H](NC(=O)CCc1ccccc1)C(C)C)C(C)(C)C)C(=O)O (Hydrocinnamoyl-V[Tle]D(Pyrrolidide)DL-OH)	4	123
CCC(CC)CC(=O)N[C@H](C(=O)N[C@@H](CC(=O)N1CCCC1)C(=O)N[C@@H](CC(=O)O)C(=O)N[C@@H](CC(C)C)C(=O)O)C(C)(C)C (X2-[Tle]D(Pyrrolidide)DL-OH)	140	
CCC(CC)NC(=O)N[C@H](C(=O)N[C@@H](CC(=O)N1CCCC1)C(=O)N[C@@H](CC(=O)O)C(=O)N[C@@H](CC(C)C)C(=O)O)C(C)(C)C ({NH(3-pentyl)-CO}-[Tle]D(Pyrrolidide)DL-OH)	3	925
H-YAGTVINDL-OH	8000	

Next, values leading:

IC50 [1] [nM]	IC50 [2] [nM]	Compound
5	3500	CCC(CC)NC(=O)C[C@H](C(=O)N[C@@H](CC(=O)N1CCCC1)C(=O)N[C@@H](CC(=O)O)C(=O)N[C@@H](CC(C)C)C(=O)O)C(C)(C)C
24	588	CC(C)C[C@H](NC(=O)[C@H](CC(=O)O)NC(=O)[C@H](CC(=O)N1CCCC1)NC(=O)[C@@H](NC(=O)[C@@H](NC(=O)CCc1ccccc1)C(C)C)C(C)C)C(=O)O (Hydrocinnamoyl-VVD(Pyrrolidide)DL-OH)
5	9800	CC(C)[C@H](NC(=O)CCc1ccccc1)C(=O)N[C@H](C(=O)N[C@@H](CC(=O)N1CCCC1)C(=O)N[C@@H](CC(=O)O)C(=O)N[C@@H](CC(C)(C)C)C(=O)O)C(C)C (Hydrocinnamoyl-VVD(Pyrrolidide)D[tBuAla]-OH)
7.5	210	CC(C)C[C@H](NC(=O)[C@H](CC(=O)O)NC(=O)[C@H](CC(=O)N1CCCC1)NC(=O)[C@@H](NC(=O)[C@H](C(C)C)N(C)C(=O)CCc1ccccc1)C(C)C)C(=O)O (Hydrocinnamoyl-[NMeV]VD(Pyrrolidide)DL-OH)
635	7000	CCC(CC)OC(=O)N[C@H](C(=O)N[C@@H](CC(=O)N1CCCC1)C(=O)N[C@@H](CC(=O)O)C(=O)N[C@@H](CC(C)C)C(=O)O)C(C)(C)C (X1-[Tle]D(Pyrrolidide)DL-OH)
